From patent publication US9428472B2, “Methods of treating bacterial infections with 1,2-benzisothiazolinone and isoindolinone derivatives” (GEORGETOWN UNIVERSITY, priority 2011, dated 2016)
≈ marks a conversion by molar mass, not a printed value. Read-outs that look alike come from different tables or passages of the source.

What was measured:
[1] = tested on: Gram-positive bacterial organisms; experiment: Screening for antibacterial compounds (disc diffusion method, CSLI M02-A10); format: cell-based
Method: (§1) An inoculum of the tested organism was made from an 18-24 h agar plate and was grown overnight to 0.5 McFarland standard. This suspension was then spread on a fresh Mueller-Hinton plate in the following manner: Optimally, within 15 minutes after adjusting the turbidity of the inoculum suspension, a sterile cotton swab was dipped the suspension. The swab was rotated several times and pressed firmly on the inside wall of the tube to remove excess inoculum. The dried surface of the Mueller-Hinton agar plate was then inoculated by streaking the swab over the entire sterile agar surface. Discs of sterile filter paper were inoculated with standard amounts of compounds (5, 10 and 25 microgram) and were dried before application on to the streaked plate. A control disc with the same DMSO % as the test discs were also applied to the plate. The plates were inverted after 15 minutes and were placed in an incubator set to 35° C. After 16-18 h, the plates were examined. The circular zones of inhibition were evaluated by measuring the diameter of the circular margin with no obvious visible growth. The inhibition diameters of standardized drugs against the tested organism were also determined simultaneously and are compared to those mentioned in CLSI M02-A10.

[2] = tested on: Staphylococcus aureus 43300 (MRSA); experiment: Disc-diffusion method (disc inhibition testing); format: cell-based
Method: as §1

[3] = tested on: Enterococcus fecalis 29212; experiment: Disc-diffusion method (disc inhibition testing); format: cell-based; details: read-out: Zone diameter
Method: as §1

Micrococcus sp = experiment: Disc-diffusion method (disc inhibition testing); format: cell-based; details: read-out: Zone diameter
Method: as §1

[4] = tested on: Staphylococcus aureus 25923; experiment: Disc-diffusion method (disc inhibition testing); format: cell-based; details: read-out: Zone diameter
Method: as §1

[5] = tested on: Staphylocccus saprophyticus; experiment: Disc-diffusion method (disc inhibition testing); format: cell-based; details: read-out: Zone diameter
Method: as §1

[6] = tested on: Enterococcus fecalis 51299 (VRE); experiment: Disc-diffusion method (disc inhibition testing); format: cell-based
Method: as §1

[7] = tested on: Staphylococcus aureus 29213; experiment: Disc-diffusion method (disc inhibition testing); format: cell-based; details: read-out: Zone diameter
Method: as §1

Group A Streptococci = experiment: Disc-diffusion method (disc inhibition testing); format: cell-based; details: read-out: Zone diameter
Method: as §1

HepG2 = experiment: In vitro toxicity, neutral red cell viability and MTT assays; format: cell-based, human
Method: (§2) The in vitro toxicity of these compounds was determined by the neutral red (both compounds I-1 and I-2) and MTT (3-(4,5-Dimethylthiazol-2-yl)-2,5-diphenyltetrazolium bromide) assay (compound I-1) in human hepatic cell lines Huh7 and HepG2.
(§3) The neutral red cell viability assay and the MTT assays were conducted with the active compounds at defined concentrations in human hepatoma cell lines, Huh7 and HepG2, as described by Repetto et al (Repetto G, Peso A. D. & Zurita J. L., Neutral red uptake assay for the estimation of cell viability/cytotoxicity, Nature Protocols 3, 1125-1131 (2008)) and Mosmann et al (Mosmann T., Rapid colorimetric assay for cellular growth and survival: application to proliferation and cytotoxicity assays, Journal of Immunological Methods 65 (1-2): 55-63, (December 1983)) respectively. The cell cytotoxicity (CC-50) concentrations were calculated for the HepG2 cell line.

Huh7 = experiment: as above; format: cell-based, human
Method: as §2, §3

[8] = tested on: Staphylococcus saprophyticus, Staphylococcus aureus, Micrococcus sp., Enterococcus fecalis and Group A Streptococcus; experiment: Broth microdilution method, MIC-50 over the tested organisms; format: cell-based
Method: as §2
96 well plates were used to determine the MIC-50 endpoints for most fastidious organisms. The tested compounds were diluted in RPMI to 50 microgram/ml and 0.1 ml was added to the first well. Two-fold dilutions were made in subsequent wells in RPMI to get a range of concentrations from 0.1-50 μg/ml. The volume of diluted compound in each well was 100 microliter. Bacteria were grown in Mueller-Hinton Broth from a single colony from a fresh plate of the tested organism. The broth was grown overnight to 0.5 McFarland standard (10^8 cells) and further diluted in RPMI to get a final inoculum concentration of 5×10^5 CFU/mL. 15 minutes after the inoculum had been standardized as described above, 5 μl of this suspension was inoculated to each well containing 0.1 ml of the tested compound. This plate was then kept at 35° C. for 16-20 h in an ambient air incubator. […] The concentration of inoculum suspension was confirmed by replating on to agar plates. […] The endpoints of standardized drugs are also determined simultaneously and were compared to those mentioned in CLSI M07-08.

E. Coli 25922 = experiment: Disc-diffusion method (disc inhibition testing); format: cell-based; details: Conc. 10/25/50 μg
Method: as §1, with “Discs of sterile filter paper were inoculated with standard amounts of compounds (5, 10 and 25 microgram) and were dried before application on to the streaked plate.” left out

Klebsiella oxytoca = experiment: Disc-diffusion method (disc inhibition testing); format: cell-based; details: Conc. 10/25/50 μg
Method: as §1, with “Discs of sterile filter paper were inoculated with standard amounts of compounds (5, 10 and 25 microgram) and were dried before application on to the streaked plate.” left out

Proteus sp 35651 = experiment: Disc-diffusion method (disc inhibition testing); format: cell-based; details: Conc. 10/25/50 μg
Method: as §1, with “Discs of sterile filter paper were inoculated with standard amounts of compounds (5, 10 and 25 microgram) and were dried before application on to the streaked plate.” left out

Shigella sp = experiment: Disc-diffusion method (disc inhibition testing); format: cell-based; details: Conc. 10/25/50 μg
Method: as §1, with “Discs of sterile filter paper were inoculated with standard amounts of compounds (5, 10 and 25 microgram) and were dried before application on to the streaked plate.” left out

Klebsiella pnemonia 1705 = experiment: Disc-diffusion method (disc inhibition testing); format: cell-based; details: Conc. 10/25/50 μg
Method: as §1, with “Discs of sterile filter paper were inoculated with standard amounts of compounds (5, 10 and 25 microgram) and were dried before application on to the streaked plate.” left out

Streptococcus pneumoniae = experiment: Disc-diffusion method (disc inhibition testing); format: cell-based; details: Conc. 10/25/50 μg
Method: as §1, with “Discs of sterile filter paper were inoculated with standard amounts of compounds (5, 10 and 25 microgram) and were dried before application on to the streaked plate.” left out

Pseudomonas aeroginosa = experiment: Disc-diffusion method (disc inhibition testing); format: cell-based; details: Conc. 10/25/50 μg
Method: as §1, with “Discs of sterile filter paper were inoculated with standard amounts of compounds (5, 10 and 25 microgram) and were dried before application on to the streaked plate.” left out

Aeromonas sp = experiment: Disc-diffusion method (disc inhibition testing); format: cell-based; details: Conc. 10/25/50 μg
Method: as §1, with “Discs of sterile filter paper were inoculated with standard amounts of compounds (5, 10 and 25 microgram) and were dried before application on to the streaked plate.” left out

[9] = neutral red (I-1, I-2) and MTT (I-1)

Question: Which results are given for `O=C(Cn1sc2ccccc2c1=O)Nc1ccccc1Oc1ccccc1` [Compound I-2]?
Answer: activity against Staphylococcus saprophyticus, Staphylococcus aureus, Micrococcus sp., Enterococcus fecalis and Group A Streptococcus [1]: showed activity; antibiotic activity against Gram-positive bacterial organisms ([1]; disc diffusion screening): antibiotic activity; zone of inhibition at 10 µg/disc ([2]; Staphylococcus aureus, MRSA, Conc. 10 μg, read-out: Zone diameter): 19 mm; zone of inhibition at 25 µg/disc ([2]; Staphylococcus aureus, MRSA, Conc. 25 μg, read-out: Zone diameter): 19 mm; zone of inhibition at 50 µg/disc ([2]; Staphylococcus aureus, MRSA, Conc. 50 μg, read-out: Zone diameter): 23 mm; activity against Staphylococcus aureus ATCC 43300 (MRSA) ([2]; method not named): active; zone of inhibition at 10 µg/disc ([3]; Conc. 10 μg): 14 mm; zone of inhibition at 25 µg/disc ([3]; Conc. 25 μg): 16 mm; zone of inhibition at 50 µg/disc ([3]; Conc. 50 μg): 18 mm; zone of inhibition at 10 µg/disc (Micrococcus sp; Conc. 10 μg): 27 mm; zone of inhibition at 25 µg/disc (Micrococcus sp; Conc. 25 μg): 28 mm; zone of inhibition at 50 µg/disc (Micrococcus sp; Conc. 50 μg): 29 mm; zone of inhibition at 10 µg/disc ([4]; Conc. 10 μg): 18 mm; zone of inhibition at 25 µg/disc ([4]; Conc. 25 μg): 21 mm; zone of inhibition at 50 µg/disc ([4]; Conc. 50 μg): 23 mm; zone of inhibition at 10 µg/disc ([5]; Conc. 10 μg): 22 mm; zone of inhibition at 25 µg/disc ([5]; Conc. 25 μg): 24 mm; zone of inhibition at 50 µg/disc ([5]; Conc. 50 μg): 25 mm; zone of inhibition at 10 µg/disc ([6]; Enterococcus, VRE, Conc. 10 μg, read-out: Zone diameter): 17 mm; zone of inhibition at 25 µg/disc ([6]; Enterococcus, VRE, Conc. 25 μg, read-out: Zone diameter): 22 mm; zone of inhibition at 50 µg/disc ([6]; Enterococcus, VRE, Conc. 50 μg, read-out: Zone diameter): 24 mm; activity against Enterococcus fecalis ATCC 51299 (VRE) ([6]; method not named): active; zone of inhibition at 10 µg/disc ([7]; Conc. 10 μg): 16 mm; zone of inhibition at 25 µg/disc ([7]; Conc. 25 μg): 18 mm; zone of inhibition at 50 µg/disc ([7]; Conc. 50 μg): 22 mm; zone of inhibition at 10 µg/disc (Group A Streptococci; Conc. 10 μg): 20 mm; zone of inhibition at 25 µg/disc (Group A Streptococci; Conc. 25 μg): 24 mm; zone of inhibition at 50 µg/disc (Group A Streptococci; Conc. 50 μg): 27 mm; concentration up to which no toxicity was shown (HepG2): ≥ 100 microgram/ml; in vitro toxicity (HepG2; [9]): Minimal in vitro toxicity; concentration up to which no toxicity was shown (Huh7): ≥ 100 microgram/ml; in vitro toxicity (Huh7; [9]): Minimal in vitro toxicity; MIC50 ([8]; range over the five named organisms, read-out: MIC-50 concentrations): 1 to 15 µg/mL (≈ 2.66 to 39.8 µM); MIC50 ([8]; range over the tested gram positive pathogens, read-out: MIC-50 values): 1 to 15 µg/mL (≈ 2.66 to 39.8 µM); Zone diameter (E. Coli 25922): NOT ACTIVE; Zone diameter (Klebsiella oxytoca): NOT ACTIVE; Zone diameter (Proteus sp 35651): NOT ACTIVE; Zone diameter (Shigella sp): NOT ACTIVE; Zone diameter (Klebsiella pnemonia 1705): NOT ACTIVE; Zone diameter (Streptococcus pneumoniae): NOT ACTIVE; Zone diameter (Pseudomonas aeroginosa): NOT ACTIVE; Zone diameter (Aeromonas sp): NOT ACTIVE
